Measurements taken from patent US20140010939A1, “Sweetness Enhancers, Sweetener Compositions, Methods of Making the Same and Consumables Containing the Same” (Nutrinova Nutrition Specialties & Food Ingredients GmbH, priority 2011, published 2014).

Test system: control cell line without sweet receptor (HEKα15#17)
Assay: Control cell line without sweet receptor in the same calcium cell based assay
Procedure: For measurement of human T1R2/T1R3 taste receptor dependent activity a control cell line without sweet receptor based on HEK 293 and a cell line expressing the sweet receptor hT1R2/hT1R3 based on HEK 293, respectively, are seeded into assay plates and labelled with the calcium sensitive fluorescence dye Fluo4-AM in a culture medium. The potential modulators, e.g. the test compound, are added to the control cell line and to the cell line expressing the sweet receptor hT1R2/hT1R3, respectively.
A stable cell line based on HEK293 was termed HEKα15#17 served as control for functional Ga-protein and a stable cell line HEKGα15#17R2R3b#8 C6 served as cell line expressing the sweet receptor hT1R2/hT1R3 based on HEKGα15#17.
The cells were cultured in DMEM/HG and 10% FCS Gold, 4 mM L-Glutamin, 1,3 mg/ml Geneticin (HEKGα15#17) or the same medium additionally containing 6 μg/ml Blasticidin (HEKGα15#17R2R3b#8 C6). The medium for the assay was DMEM/HG (high glucose, 4.5 g/l glucose, Life Technologies) and 10% FCS Gold, 4 mM L-Glutamin (HEKGα15#17) or DMEM/LG (low glucose, 1 g/l glucose; Life Technologies) and 10% FCS Gold (HEKGα15#17R2R3b#8C6), respectively.
In order to evaluate the sweet receptor modulating activity of the compound of formula (Ia), compound of formula (Ia) was added to the cultures in a concentration of 25 μM in a volume of 50 μl. Controls were KH-buffer (Krebs HEPES-buffer: 118 mM NaCl, 4.7 mM KCl, 1.2 mM MgSO4, 1.2 mM KH2PO4, 4.2 mM NaHCO3, 1.3 mM CaCl2, 10 mM Hepes, pH 7.4) either without or with sweetness enhancer.
Further controls for function of G-protein and receptor were isoproterenol (1 μM, Sigma Aldrich), ionomycin (1 μM, Calbiochem) and ATP (1 μM, Applichem).
For measurement of human T1R2/T1R3 taste receptor dependent activity, on day 1 of the test procedure the HEKα15#17 cells (control cell line without sweet receptor) and the HEKGα15#17R2R3b#8 C6 cells (cell line expressing the sweet receptor hT1R2/hT1R3), respectively, were transferred to low-glucose medium.
On day 2 the cells were seeded into assay plates at a density of 25,000 cells/well. Assay plates for fluorescence measurement (black clear bottom 96-cavity plates, Greiner Bio-One) were coated with poly-D-lysine. For direct comparison both cell lines (control cell line without sweet receptor and cell line expressing the sweet receptor hT1R2/hT1R3) were seeded into different cavities of the same assay plate. The plate was placed into the incubator for 48 hours at 37° C., 5% CO2, 100% relative humidity.
On day 4 the calcium assay was performed. For this assay, the cells were marked with Fluo4-AM in medium and KH-buffer. To each cavity 100 μl KH-buffer/250 μM sulfinpyrazone/4 μM Fluo4-AM were added gently to 100 μl medium (final concentration of Fluo4-AM=2 μM, stock solution of Fluo4-AM 1 mM in DMSO, excitation at 485 nm, emission at 520 nm, Fisher Scientific, 58239 Schwerte, Germany).
The plate was placed into the incubator for 1 hour. In the mean time the test substances (“ligands”) were prepared in a separate plate (5 times concentrated, 150 μl/cavity, and then automatically 50 μl/cavity were transferred into the screening cell plate by pipetting robot (FLEX-station, Molecular Devices, Sunnyvale, Calif.).
The culture medium was carefully removed and 200 μl KH-buffer/250 μM sulfinpyrazone per cavity was added slowly. Cells were left in the FLEX-station for 20 minutes for adaptation, followed by measurement at 37° C.

[1] = control compounds 1 μM, FIG. 1 second to fourth bars

Structure (SMILES): C[C@H](CCC(=O)O)C[C@H](C)C[C@H](C)C(=O)/C=C(\O)[C@H](C)C[C@H](C)C/C=C/[C@@H](C)[C@@H](O)[C@@H](C)[C@@H](O)C[C@@H]1CC[C@@](C)([C@H]2CC[C@@](C)([C@@H](C)O)O2)O1 [ionomycin]
- Fluo4-AM fluorescence increase (activation of control cell line) [1]: activate both the control and the cell line expressing the sweet receptor hT1R2/hT1R3

Structure (SMILES): O=C(CO)[C@@H](O)[C@H](O)[C@H](O)CO [fructose]
- Fluo4-AM fluorescence increase (activation of control cell line) (KH buffer/fructose (20 mM), FIG. 1 fifth bar): does neither activate the control cell line

Structure (SMILES): Nc1ncnc2c1ncn2[C@@H]1O[C@H](COP(=O)(O)OP(=O)(O)OP(=O)(O)O)[C@@H](O)[C@H]1O [ATP]
- Fluo4-AM fluorescence increase (activation of control cell line) [1]: activate both the control and the cell line expressing the sweet receptor hT1R2/hT1R3

Structure (SMILES): CC(C)NCC(O)c1ccc(O)c(O)c1 (centres unmarked) [isoproterenol]
- Fluo4-AM fluorescence increase (activation of control cell line) [1]: activate both the control and the cell line expressing the sweet receptor hT1R2/hT1R3

Structure (SMILES): O=S(=O)([O-])NC1CCCCC1.[Na+] [sodium cyclamate]
- Fluo4-AM fluorescence increase (activation of control cell line) (sodium cyclamate 30 mM, control sweetener, FIG. 1 first bar): does not activate the control cell line
